Measured values: paper PMC6259751, “Investigating Spectrum of Biological Activity of 4- and 5-Chloro-2-hydroxy-N-[2-(arylamino)-1-alkyl-2-oxoethyl]benzamides” (Molecules, 2011)
≈ marks a conversion by molar mass, not a printed value. Where “and” joins values, the source holds several entries; their conditions need not be identical. Equal entries are not always repeated. Where two headings read alike, the source gives them in different places.

Legend:
[1] = test system: Mycobacterium avium MA CNCTC My 330/88; experiment: In vitro antimycobacterial evaluation; assay type: cell-based; conditions: IC90 value
[2] = test system: Mycobacterium kansasii MK CNCTC My 235/80; experiment: In vitro antimycobacterial evaluation; assay type: cell-based; conditions: IC90 value
[3] = test system: Mycobacterium tuberculosis MTB CNCTC My 331/88; experiment: In vitro antimycobacterial evaluation; assay type: cell-based; conditions: IC90 value
[4] = test system: methicilin resistant Staphylococcus aureus H 5996/08; experiment: In vitro antibacterial susceptibility testing (broth microdilution); conditions: MRSA, read-out: MIC MRSA
Candida tropicalis 156 = experiment: In vitro antifungal susceptibility testing (broth microdilution); assay type: cell-based; conditions: M27-A2 for yeasts, IC80 value
[5] = test system: Enterococcus sp. J 14365/08; experiment: In vitro antibacterial susceptibility testing (broth microdilution); conditions: read-out: MIC EF
[6] = test system: Staphylococcus epidermidis H 6966/08; experiment: as above; conditions: read-out: MIC SE
[7] = test system: Trichophyton mentagrophytes 445; experiment: In vitro antifungal susceptibility testing (broth microdilution); assay type: cell-based
[8] = Lipophilicity determination by RP-HPLC (capacity factor k / log k); assay type: physicochemical; conditions: C18 column, MeOH 70% / H2O 30%, isocratic
Method: Hydrophobicities (log P/Clog P) of compounds 8 and 9 were calculated using two commercially available programs (ChemOffice Ultra 10.0 and ACD/LogP) and measured by means of RP-HPLC determination of capacity factors k with subsequent calculation of log k. The procedure was performed under isocratic conditions with methanol as an organic modifier in the mobile phase using an end-capped non-polar C18 stationary RP column. The results are shown in Table 1 and illustrated in Figure 1.
A Waters Alliance 2695 XE HPLC separation module and a Waters Photodiode Array Detector 2996 (Waters Corp., Milford, MA, USA) were used. A Symmetry® C18 5 μm, 4.6 × 250 mm, Part No. WAT054275 (Waters Corp., Milford, MA, USA) chromatographic column was used. The HPLC separation process was monitored by Empower™ 2 Chromatography Data Software, Waters 2009 (Waters Corp., Milford, MA, USA). A mixture of MeOH p.a. (70%) and H2O-HPLC – Mili-Q Grade (30%) was used as a mobile phase. The total flow of the column was 1.0 mL/min, injection volume, 30 μL, column temperature, 30 °C and sample temperature, 10 °C. The detection wavelength of 210 nm was chosen. The KI methanolic solution was used for the dead time (tD) determination. Retention times (tR) were measured in minutes. The capacity factors k were calculated using the Empower™ 2 Chromatography Data Software according to formula k = (tR - tD)/tD, where tR is the retention time of the solute, whereas tD denotes the dead time obtained using an unretained analyte. Log k, calculated from the capacity factor k, is used as the lipophilicity index converted to log P scale.

[9] = test system: Staphylococcus aureus CCM 4516/08; experiment: In vitro antibacterial susceptibility testing (broth microdilution); conditions: read-out: MIC SA
[10] = 72h, M38-A for moulds, IC50 value, read-out: MIC TM
[11] = 120h, M38-A for moulds, IC50 value, read-out: MIC TM

Structure (SMILES)	MIC ([1]; 14h) [µM]	MIC ([1]; 21h) [µM]	MIC ([2]; 14h) [µM]	MIC ([2]; 21h) [µM]	MIC ([3]; 14h) [µM]	MIC ([3]; 21h) [µM]	MIC ([4]; 24 h) [µM]	MIC ([4]; 48 h) [µM]	MIC (Candida tropicalis 156; 24h) [µM]	MIC (Candida tropicalis 156; 48h) [µM]	MIC ([5]; SP.J14365/08, 24 h) [µM]	MIC ([5]; SP.J14365/08, 48 h) [µM]	MIC ([6]; H6966/08, 24 h) [µM]	MIC ([6]; H6966/08, 48 h) [µM]	MIC [7, 10] [µM]	MIC [7, 11] [µM]	log k [8]	MIC ([9]; CCM4516, 24 h) [µM]	MIC ([9]; CCM4516, 48 h) [µM]	MIC ([7]; conclusions, incubation time not stated, read-out: antifungal activity against Trichophyton mentagrophytes (MIC)) [µM]
NNC(=O)c1ccncc1 [INH, isoniazid, reference compound]	> 250	> 250	> 250	> 250	0.5 (≈ 0.0686 µg/mL)	0.5 (≈ 0.0686 µg/mL)														
CC(C)[C@@H](NC(=O)c1ccc(Cl)cc1O)C(=O)Nc1ccc(Cl)cc1 [9d]	62.5 (≈ 23.8 µg/mL)	62.5 (≈ 23.8 µg/mL)	62.5 (≈ 23.8 µg/mL)	62.5 (≈ 23.8 µg/mL)	62.5 (≈ 23.8 µg/mL)	62.5 (≈ 23.8 µg/mL)	> 500	> 500	> 125	> 125	> 500	> 500	> 500	> 500	7.81 (≈ 2.98 µg/mL)	7.81 (≈ 2.98 µg/mL)	0.6832	> 500	> 500	
C[C@@H](NC(=O)c1cc(Cl)ccc1O)C(=O)Nc1ccc(Cl)cc1 [8h]	125 (≈ 44.2 µg/mL)	125 (≈ 44.2 µg/mL)	125 (≈ 44.2 µg/mL)	250 (≈ 88.3 µg/mL)	8 (≈ 2.83 µg/mL)	16 (≈ 5.65 µg/mL)	> 500	> 500	> 125	> 125	> 500	> 500	> 500	> 500	> 125	> 125	0.4308	> 500	> 500	
C[C@@H](NC(=O)c1cc(Cl)ccc1O)C(=O)Nc1cccc(Cl)c1 [8c, 5-chloro-N-{(1R)-2-[(3-chlorophenyl)amino]-1-methyl-2-oxoethyl}-2-hydroxybenzamide]	125 (≈ 44.2 µg/mL)	250 (≈ 88.3 µg/mL)	62.5 (≈ 22.1 µg/mL)	62.5 (≈ 22.1 µg/mL)	62.5 (≈ 22.1 µg/mL)	125 (≈ 44.2 µg/mL)	> 500	> 500	31.2 (≈ 11 µg/mL)	125 (≈ 44.2 µg/mL)	> 500	> 500	> 500	> 500	0.49 (≈ 0.173 µg/mL)	0.49 (≈ 0.173 µg/mL)	0.41 and 0.4153	> 500	> 500	0.49 (≈ 0.173 µg/mL)
O=C(N[C@H](Cc1ccccc1)C(=O)Nc1cccc(Cl)c1)c1cc(Cl)ccc1O [8g, N-{(1S/R)-1-benzyl-2-[(3-chlorophenyl)amino]-2-oxoethyl}-5-chloro-2-hydroxybenzamide]	32 (≈ 13.7 µg/mL)	32 (≈ 13.7 µg/mL)	62.5 (≈ 26.8 µg/mL)	62.5 (≈ 26.8 µg/mL)	62.5 (≈ 26.8 µg/mL)	62.5 (≈ 26.8 µg/mL)	> 500	> 500	31.2 (≈ 13.4 µg/mL)	125 (≈ 53.7 µg/mL)	> 500	> 500	> 500	> 500	125 (≈ 53.7 µg/mL)	125 (≈ 53.7 µg/mL)	0.70 and 0.7066	> 500	> 500	
O=C(CNC(=O)c1cc(Cl)ccc1O)Nc1ccc(Cl)c(Cl)c1 [8m]	62.5 (≈ 23.4 µg/mL)	500 (≈ 187 µg/mL)	125 (≈ 46.7 µg/mL)	500 (≈ 187 µg/mL)	125 (≈ 46.7 µg/mL)	500 (≈ 187 µg/mL)	> 125	> 125	> 125	> 125	> 125	> 125	> 125	> 125	> 125	> 125	0.4971	> 125	> 125	
CC(C)[C@H](NC(=O)c1cc(Cl)ccc1O)C(=O)Nc1ccc(Cl)c(Cl)c1 [8o]	62.5 (≈ 26 µg/mL)	125 (≈ 52 µg/mL)	32 (≈ 13.3 µg/mL)	62.5 (≈ 26 µg/mL)	32 (≈ 13.3 µg/mL)	32 (≈ 13.3 µg/mL)	> 500	> 500	> 125	> 125	> 500	> 500	> 500	> 500	> 125	> 125	0.8623	> 500	> 500	
CC(C)[C@@H](NC(=O)c1cc(Cl)ccc1O)C(=O)Nc1ccc(Cl)c(Cl)c1 [8p]	62.5 (≈ 26 µg/mL)	125 (≈ 52 µg/mL)	32 (≈ 13.3 µg/mL)	62.5 (≈ 26 µg/mL)	16 (≈ 6.65 µg/mL)	32 (≈ 13.3 µg/mL)	> 500	> 500	> 125	> 125	> 500	> 500	> 500	> 500	> 125	> 125	0.8614	> 500	> 500	
OC(Cn1cncn1)(Cn1cncn1)c1ccc(F)cc1F [FLU, fluconazole, reference compound]									0.12 (≈ 0.0368 µg/mL)	> 125					1.95 (≈ 0.597 µg/mL)	3.91 (≈ 1.2 µg/mL)				
O=C(O)c1cn(C2CC2)c2cc(N3CCNCC3)c(F)cc2c1=O [CPF, ciprofloxacin, reference compound]							500 (≈ 166 µg/mL)	500 (≈ 166 µg/mL)					250 (≈ 82.8 µg/mL)	250 (≈ 82.8 µg/mL)						
CC1(C)S[C@@H]2[C@H](NC(=O)Cc3ccccc3)C(=O)N2[C@H]1C(=O)O [PEN, penicillin G, reference compound]							125 (≈ 41.8 µg/mL)	125 (≈ 41.8 µg/mL)			7.81 (≈ 2.61 µg/mL)	15.6 (≈ 5.22 µg/mL)	31.6 (≈ 10.6 µg/mL)	125 (≈ 41.8 µg/mL)				0.24 (≈ 0.0803 µg/mL)	0.24 (≈ 0.0803 µg/mL)	
